Patent publication US8420114B2, “Alpha and beta adrenergic receptor agonists for treatment of pain and / or inflammation” (Warsaw Orthopedic, Inc., priority 2008, dated 2013)

Assays:
[1] = test system: rat Chronic Constriction Injury model (Bennett Model) of neuropathic pain; test: Hargreaves test of thermal hyperalgesia (thermal paw withdrawal latency) in rat chronic constriction injury model; type: in vivo, Wistar rat
From the text: (§1) The inventors evaluated the efficacy of a various alpha-2-adrenergic receptor agonists and compared them against saline in the rat Chronic Constriction Injury model (i.e., Bennett Model) using Wistar rats. […] The doses given would mimic those achievable by a continuous release drug depot containing a biodegradable polymer (7 rats in each group).
Each group received the treatment indicated above for total of 15 days and subjected to the following two tests: (1) the Hargreaves test on days 7 and 14; and (2) the von Frey test on days 8 and 15.
(§2) Results from another rat chronic constriction injury model study silimar to that discussed in Example 5, except some drug compositions having predominantly alpha 1 agonist activity and some drug compositions having predominantly alpha 2 agonist activity were given as indicated in the table below. The doses given would mimic those achievable by a continuous release drug depot containing a biodegradable polymer (7 rats in each group). […]
(§3) The inventors evaluated the efficacy of a various beta-2-adrenergic receptor agonists and compared them to clonidine (an alpha-2-agonist) and saline in the rat Chronic Constriction Injury model (i.e., Bennett Model) using Wistar rats.
(§4) Hargreaves tests were conducted on days 7 and 14; and von Frey tests were performed on days 8 and 15, where some drug compositions having predominantly beta-2 agonist activity were compared to clonidine a drug composition that has predominantly alpha-2 agonist activity and saline. The doses given would mimic those achievable by a continuous release drug depot containing a biodegradable polymer (7 rats in each group).
Each group received the treatment indicated above for total of 15 days and the following two tests: (1) the Hargreaves test on days 7 and 14; and (2) the von Frey test on days 8 and 15.

[2] = test system: rat Chronic Constriction Injury model (Bennett Model) of neuropathic pain; test: von Frey monofilament test of mechanical allodynia (mechanical threshold) in rat chronic constriction injury model; type: in vivo, Wistar rat
From the text: as §1, with “group). […]” for “group).”
as §2, §3
as §4, with “[…],” for “and von Frey tests were performed on days 8 and 15,”, “group). […]” for “group).”

[3] = Example 5, FIG. 36, 100 micrograms/kg subcutaneous every day for 15 days, days 7 and 14
[4] = Example 7, FIG. 40, 5 mg/kg subcutaneous every day for 15 days, day 14, vs saline

Structure (SMILES): Clc1cccc(Cl)c1N=C1NCCN1 [clonidine, 2,6-dichloro-N-2-imidazolidinyldenebenzenamine]
- pain behavioral response for thermal hyperalgesia ([1]; Example 5, FIG. 36, 0.02 mg/kg subcutaneous every day for 15 days, days 7 and 14): statistically significant result of decreasing pain responses
- pain behavioral response for thermal hyperalgesia ([1]; Example 6, FIG. 37, 0.02 mg/kg subcutaneous every day for 15 days, days 7 and 14): statistically significant result of decreasing pain responses
- pain behavioral response for thermal hyperalgesia ([1]; Example 7, FIG. 39, 0.02 mg/kg subcutaneous every day for 15 days, day 14, vs saline): statistically significant result of decreasing pain responses
- pain behavioral response for mechanical allodynia ([2]; Example 5, FIG. 35, 0.02 mg/kg subcutaneous every day for 15 days, day 15, vs saline): statistically significant results of decreasing pain responses
- pain behavioral response (measured as a percentage of baseline) for mechanical allodynia ([2]; clonidine subcutaneously 0.02 mg/kg/day, compared to unloaded polymer depots, FIG. 4): reduced the behavioral response

Structure (SMILES): N=C(N)N/N=C/c1c(Cl)cccc1Cl [guanabenz]
- pain behavioral response for thermal hyperalgesia ([1]; Example 6, FIG. 37, 1 mg/kg subcutaneous every day for 15 days, day 7): statistically significant result of decreasing pain responses
- pain behavioral response for mechanical allodynia ([2]; Example 6, FIG. 38, 1 mg/kg subcutaneous daily, day 8, compared to saline): decreased mechanical allodynia
- pain behavioral response for mechanical allodynia ([2]; Example 6, FIG. 38, 5 mg/kg subcutaneous daily, day 15, compared to saline): decreased mechanical allodynia

Structure (SMILES): N=C(N)NC(=O)Cc1c(Cl)cccc1Cl [guanfacine]
- pain behavioral response for thermal hyperalgesia ([1]; Example 5, FIG. 36, 5 mg/kg subcutaneous every day for 15 days, days 7 and 14): statistically significant result of decreasing pain responses
- pain behavioral response for mechanical allodynia ([2]; Example 5, FIG. 35, 5 mg/kg subcutaneous every day for 15 days, day 15, vs saline): statistically significant results of decreasing pain responses

Structure (SMILES): Cc1cccc(C(C)c2cnc[nH]2)c1C (centres unmarked) [medetomidine]
- pain behavioral response for thermal hyperalgesia [1, 3]: statistically significant result of decreasing pain responses
- pain behavioral response for thermal hyperalgesia ([1]; Example 5, FIG. 36, 200 micrograms/kg subcutaneous every day for 15 days, day 14): statistically significant result of decreasing pain responses
- pain behavioral response for mechanical allodynia ([2]; Example 5, FIG. 35, 200 micrograms/kg subcutaneous every day for 15 days, day 15, vs saline): statistically significant results of decreasing pain responses

Structure (SMILES): Cc1cc(C(C)(C)C)c(O)c(C)c1CC1=NCCN1 [oxymetazoline]
- pain behavioral response for thermal hyperalgesia ([1]; Example 6, FIG. 37, 0.1 mg/kg subcutaneous every day for 15 days, day 7): statistically significant result of decreasing pain responses
- pain behavioral response for thermal hyperalgesia ([1]; Example 6, FIG. 37, 0.3 mg/kg subcutaneous every day for 15 days, days 7 and 14): statistically significant result of decreasing pain responses
- pain behavioral response for mechanical allodynia ([2]; Example 6, FIG. 38, 0.1 mg/kg subcutaneous every day for 15 days, day 8 and 15, compared to saline): decreasing pain responses
- pain behavioral response for mechanical allodynia ([2]; Example 6, FIG. 38, 0.3 mg/kg subcutaneous every day for 15 days, day 8 and 15, compared to saline): decreasing pain responses

Structure (SMILES): CNC[C@H](O)c1cccc(O)c1 [phenylephrine]
- pain behavioral response for thermal hyperalgesia ([1]; Example 6, FIG. 37, 2 mg/kg subcutaneous every day for 15 days, day 7): statistically significant result of decreasing pain responses
- pain behavioral response for thermal hyperalgesia ([1]; Example 6, FIG. 37, 10 mg/kg subcutaneous every day for 15 days, days 7 and 14): statistically significant result of decreasing pain responses
- pain behavioral response for mechanical allodynia ([2]; Example 6, FIG. 38, 10 mg/kg subcutaneous daily, day 8, compared to saline): decreased mechanical allodynia

Structure (SMILES): CC(NCCc1ccc(O)cc1)C(O)c1ccc(O)cc1 (centres unmarked) [ritodrine]
- pain behavioral response for thermal hyperalgesia ([1]; Example 7, FIG. 39, 2 mg/kg subcutaneous every day for 15 days, day 7, vs saline): statistically significant result of decreasing pain responses
- pain behavioral response for thermal hyperalgesia ([1]; Example 7, FIG. 39, 5 mg/kg subcutaneous every day for 15 days, day 14, vs saline): statistically significant result of decreasing pain responses
- pain behavioral response for mechanical allodynia [2, 4]: statistically significant result of decreasing pain responses

Structure (SMILES): CC(C)(C)NCC(O)c1ccc(O)c(CO)c1 (centres unmarked) [salbutamol]
- pain behavioral response for thermal hyperalgesia ([1]; Example 7, FIG. 39, 5 mg/kg subcutaneous every day for 15 days, days 7 and 14, vs saline): statistically significant result of decreasing pain responses
- pain behavioral response for thermal hyperalgesia ([1]; Example 7, FIG. 39, 10 mg/kg subcutaneous every day for 15 days, days 7 and 14, vs saline): statistically significant result of decreasing pain responses
- pain behavioral response for mechanical allodynia [2, 4]: statistically significant result of decreasing pain responses
- pain behavioral response for mechanical allodynia ([2]; Example 7, FIG. 40, 10 mg/kg subcutaneous every day for 15 days, days 8 and 15, vs saline): statistically significant result of decreasing pain responses

Structure (SMILES): CC(C)(C)NCC(O)c1cc(O)cc(O)c1 (centres unmarked) [terbutaline]
- pain behavioral response for thermal hyperalgesia ([1]; Example 7, FIG. 39, 0.1 mg/kg subcutaneous every day for 15 days, days 7 and 14, vs saline): statistically significant result of decreasing pain responses
- pain behavioral response for thermal hyperalgesia ([1]; Example 7, FIG. 39, 0.5 mg/kg subcutaneous every day for 15 days, days 7 and 14, vs saline): statistically significant result of decreasing pain responses
- pain behavioral response for mechanical allodynia ([2]; Example 7, FIG. 40, 0.5 mg/kg subcutaneous every day for 15 days, day 14, vs saline): statistically significant result of decreasing pain responses

Structure (SMILES): Clc1ccc2nsnc2c1NC1=NCCN1 [tizanidine]
- pain behavioral response for thermal hyperalgesia [1, 3]: statistically significant result of decreasing pain responses
- pain behavioral response for mechanical allodynia ([2]; Example 5, FIG. 35, 100 micrograms/kg subcutaneous every day for 15 days, day 15, vs saline): statistically significant results of decreasing pain responses
